# US5912183A, “Peptide inhibitors of mitogenesis and motogenesis” (Pharmacia & Upjohn S.p.A., priority 1993, dated 1999)
# Residues, ends and D or L forms follow the SMILES beside them.
# Assays:
# [1] = molecular target: T1, binding of p85 to HGF/SF receptor (Bos taurus, UniProt P23727); experiment: Competition of phosphopeptides with p85 for association with immobilized recombinant HGF/SF receptor (in vitro kinase assay readout); parameters: species or system human
# T1 construct: made in house; host or cells: Sf9 insect cells (baculovirus), for both p85 and the receptor
# Summary of the method: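 Sf9 lysates expressing p85 were pre-incubated 1 h at 4°C with phosphopeptides (10 μM; also 10 nM, 100 nM, 1 μM), then bound to immunoprecipitated baculovirus-expressed receptor pre-phosphorylated with 10 μM cold ATP. Bound p85 was detected by in vitro kinase labelling with [γ-32P]ATP, 15 min at 25°C, and SDS-PAGE.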
# [2] = system: binding of PI 3-kinase holoenzyme to HGF/SF receptor; experiment: Competition of phosphopeptides with PI 3-kinase holoenzyme (A549 cytosolic extracts) for association with recombinant HGF/SF receptor (PI 3-kinase activity assay); parameters: species or system human; conditions: summary statement in the description
# Description: FIG. 3. Inhibition of binding of PI 3-kinase holoenzyme to HGF/SF receptor by tyrosine-phosphorylated peptides. The phosphopeptides which efficiently out-competed p85 (FIG. 1) were assayed for the ability to interfere with binding of the PI 3-kinase holoenzyme to the HGF/SF receptor. Cytosolic extracts from three days-starved A549 cells were pre-incubated with each of the phosphopeptides (10 μM) prior to incubation with the immobilized recombinant HGF/SF receptor. The presence of receptor-associated PI 3-kinase in the immunocomplexes was determined by PI 3-kinase activity assay, as described in Materials and Methods of Example 4. The position of the phosphatidylinositol-3-phosphate (PIP) product of the PI 3-kinase reaction is indicated.
# In vitro association experiments. Sf9 cells expressing the recombinant HGF/SF receptor (approximately 4×10^6 cells/point) were lysed 36 hours after infection in buffer A (10 mM Tris-HCl buffer pH 7.5, 10% glycerol, 1% Triton X-100, 150 mM NaCl, 5 mM EDTA), supplemented with 0.2 mM phenyl-methylsulfonyl fluoride, 1 μg/ml leupeptin, 0.1 TIU/ml aprotinin and 1 μg/ml pepstatin. […]
# The presence of the p85 subunit of the PI 3-kinase in the receptor immunoprecipitate was determined by: i) labelling of the receptor and associated proteins with [γ-^32 P]ATP by in vitro kinase assay; ii) Western immunoblotting; iii) PI 3-kinase activity assay. […]
# T1 sequence (P23727 whole entry): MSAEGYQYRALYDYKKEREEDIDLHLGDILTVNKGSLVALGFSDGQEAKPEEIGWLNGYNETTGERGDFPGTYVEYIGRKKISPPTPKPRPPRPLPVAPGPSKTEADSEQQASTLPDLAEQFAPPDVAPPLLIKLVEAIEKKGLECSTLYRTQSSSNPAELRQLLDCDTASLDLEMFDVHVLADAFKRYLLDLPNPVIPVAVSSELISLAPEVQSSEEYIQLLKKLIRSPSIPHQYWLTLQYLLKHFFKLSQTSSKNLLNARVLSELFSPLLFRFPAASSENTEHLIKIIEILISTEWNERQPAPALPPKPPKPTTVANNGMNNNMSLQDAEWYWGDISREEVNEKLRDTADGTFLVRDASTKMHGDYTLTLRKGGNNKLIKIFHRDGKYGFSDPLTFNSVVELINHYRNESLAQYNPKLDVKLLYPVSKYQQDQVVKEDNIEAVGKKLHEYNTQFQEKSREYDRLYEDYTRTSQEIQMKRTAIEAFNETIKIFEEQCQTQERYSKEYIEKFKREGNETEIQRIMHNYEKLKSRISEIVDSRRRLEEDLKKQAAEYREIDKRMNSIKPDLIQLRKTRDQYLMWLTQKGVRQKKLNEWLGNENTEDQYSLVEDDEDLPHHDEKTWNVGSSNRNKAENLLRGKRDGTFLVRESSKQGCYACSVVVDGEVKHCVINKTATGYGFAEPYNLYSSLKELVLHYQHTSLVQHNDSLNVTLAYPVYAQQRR
structure (smiles),measurement,setting,value
CSCC[C@H](NC(=O)[C@@H](NC(=O)[C@H](CCC(=O)O)NC(=O)[C@@H](N)Cc1ccc(OP(=O)(O)O)cc1)C(C)C)C(=O)N[C@@H](CC(C)C)C(=O)N[C@@H](CCCCN)C(=O)N[C@@H](CS)C(=O)N[C@@H](Cc1c[nH]c2ccccc12)C(=O)O [H-Tyr*-Glu-Val-Met-Leu-Lys-Cys-Trp-OH] (HELM PEPTIDE1{[N[C@@H](Cc1ccc(OP(=O)(O)O)cc1)C(=O)[*:2]].E.V.M.L.K.C.W}$$$$V2.0),Inhibition of binding of p85 to HGF/SF receptor,"[1]; phosphopeptide 10 μM, p85 from Sf9 lysates, FIG. 1",efficiently outcompeted p85
same,Efficiency at outcompeting p85 (relative affinity for p85),"[1]; phosphopeptides at 10 nM, 100 nM, 1 μM, FIG. 2, rank order SEQ. ID NO: 19, then 22, 20, 18",highest
same,Binding to PI 3-kinase,[2],capable of binding to PI 3-kinase
